Measured values taken from US5314890A, “1-7 disubstituted xanthine derivatives having antiasthmatic activity, their physiologically acceptable salts, pharmaceutical compositions containing them and process for their preparation” (priority 1990, dated 1994).
Read-outs that look alike come from different tables or passages of the source.

Assays:
[1] = system: isolated guinea pig bronchi; assay: "In vitro" antibronchospastic activity in isolated guinea pig bronchi; format: cell-based; settings: Cavia porcellus
Description: A steady tonic bronchomotor response was produced by administration of carbachol (0.3 μM) or capsaicin (0.3 μM, in presence of thiorphan 10 μM) on which a concentration-response curve with the various xanthine derivatives was carried out.

[2] = system: male Swiss mice; assay: Chlordiazepoxide-induced sleep in mice; format: in vivo, mouse; settings: 0.55 mmol/kg orally, 1 h before CDO (100 mg/kg i.p.); controls 27.1 ± 3.5 min; * p < 0.01
Description: Starved (20 h) male Swiss mice (20 g body weight) were injected with chlordiazepoxide (CDO) (100 mg/kg i.p.) and the duration of the induced sleep assessed. Sleeping time was defined as the time elapsing from the loss to the recovery of the righting reflex. The drugs were administered orally (0.55 mmol/kg) in a volume of 20 ml/kg 1 h before CDO. CNS excitation was valued as decrease in sleeping time (Table 4).

[3] = Antibronchospastic / bronchodilatory activity, general statement (laboratory tests by the Applicant)
[4] = system: male Swiss mice; assay: Pentylentetrazol-induced lethality in mice; format: in vivo; settings: 0.55 mmol/kg orally, 1 h before PTZ (60-75 mg/kg i.p.); controls 10%
Description: The drugs were administered orally (0.55 mmol/kg) in a volume of 20 ml/kg 1 h before PTZ. CNS excitation was valued as increase of PTZ mortality.

[5] = system: sensitized guinea-pigs; assay: Antagonism toward antigen-induced bronchospasm in sensitized guinea-pigs; format: in vivo, guinea pig; settings: 0.55 mmol/kg orally, 1 hour before 0.5% ovalbumin aerosol; mean ± s.e.m.; control 8.4 ± 0.8; * p < 0.05
Description: Guinea-pigs (sensitized with 100 mg/kg s.c. plus 100 mg/kg i.p. of ovalbumin 14 days before) (Herxheimer and Streseman-Arch. Int. Pharmacodyn. Ther. 125, 265; 1960) were challenged by an aerosol of 0.5% ovalbumin, for a period of 10 sec. in a closed chamber.
In a first set of experiments, number of aerosol-induced bronchospasms was registered in control conditions or 1 hr after the oral administration of testing substances.

[6] = Goodman and Gilman, 1985; cited from earlier work
[7] = system: anaesthetized guinea pigs; assay: Antagonism toward acetylcholine- and capsaicin-induced bronchomotor effects in anaesthetized guinea-pig; format: in vivo; settings: 70 μmol/kg i.v., mean ± s.e.m.; for inhibition percentage of acetylcholine (Ach) induced bronchospasm: 15 min before acetylcholine 25 μg/kg; for inhibition percentage of capsaicin (Caps) induced bronchospasm: 15 min before capsaicin 2.5 μg/kg
Description: Anaesthetized guinea-pig were used D-Tubocurarine (3 mg/kg i.v.) was administered, and a mechanic ventilation (60 strokes/min) with a pump through a tracheal cannula was carried out Drugs were administered intravenously in a volume less than 0.5 ml/kg through a jugular cannula. Acetylcholine (25 μg/kg) or capsaicin (2.5 μg/kg) administration evoked a powerful and transient increase in tracheal insufflation pressure which was repeatable after 30 min. […] Antibronchospastic activity was expressed as inhibition percentage referred to the first increase of tracheal insufflation pressure.

[8] = Acute oral toxicity in mice; settings: mouse, in vivo, starved male Swiss mice, observed 10 days, Litchfield and Wilcoxon
Description: Starved (18 h) male Swiss mice (20 g weight) received drugs orally (0.2 ml/10 g weight).
Death and symptoms were evaluated LD50 was obtained according to Litchfield and Wilcoxon (J. Pharm. Expt. Ther. 96, 99, 1949).

[9] = system: anaesthetized guinea pigs (sensitized); assay: Antagonism toward ovoalbumin induced bronchomotor effects in anaesthetized guinea pigs; format: in vivo, guinea pig; settings: 140 μmol/Kg i.v., 15 min before OA aerosol 0.5% for 20 s; for % inhibition of OA-induced bronchospasm referred to control group: N.A. = not active; for changes in pulmonary insufflation pressure after OA aerosol: controls 1.80 ± 0.15 KPa
Description: Antagonism toward ovoalbumin induced bronchomotor effects in anaesthetized guinea pigs.
Anaesthetized guinea pigs (sensitized with 100 mg/Kg s.c. plus 100 mg/Kg i.p. of ovoalbumin (OA) 14 days before tests) were used as described previously although bronchospasm was produced by OA intratracheal aerosol administration (0.5% for 20 s.).
Antibronchospastic activity was expressed as changes in pulmonary insufflation pressure (KPa) after OA aerosol administration and as inhibition percentage referred to control group.

[10] = isolated guinea pig bronchi, capsaicin 0.3 μM with thiorphan 10 μM, 95% C.L. in brackets, read-out: IC50, capsaicin-induced tone
[11] = isolated guinea pig bronchi, carbachol 0.3 μM, 95% C.L. in brackets, read-out: IC50, carbachol-induced tone

Row | SMILES | IC50 ([1]; read-out: IC50, capsaicin-induced tone) [µM] | IC50 ([1]; read-out: IC50, carbachol-induced tone) [µM] | CDO test sleeping-time [2] [min] | antibronchospastic / bronchodilatory activity (in words) [3] | PTZ test mortality rate [4] [%] | IC50 [1, 10] [µM] | IC50 [1, 11] [µM] | number of bronchospasms recorded in 5 minutes (bronchospasm/min) [5] [bronchospasm/min] | side effects (in words) [6] | inhibition percentage of acetylcholine (Ach) induced bronchospasm [7] [%] | inhibition percentage of capsaicin (Caps) induced bronchospasm [7] [%] | LD50 at 240 h [8] [mg/kg] | % inhibition of OA-induced bronchospasm referred to control group [9] [%] | changes in pulmonary insufflation pressure after OA aerosol [9] [KPa]
1 | Cn1c(=O)[nH]c2ncn(C)c2c1=O [Paraxanthine, 1,7-dimethyl-xanthine] | 82 | 135 | 2.3 ± 1.5 | does not show any significant antibronchospastic activity | 82 | – | – | – | – | – | – | – | – | –
2 | Cn1c(=O)c2[nH]cnc2n(C)c1=O [Theophylline, 1,3-dimethyl-xanthine, reference compound] | – | – | 7.8 ± 2.2 | – | – | 40 | 92 | 4.6 ± 1.2 | side effects on the cardiovascular system and on the central nervous system | 51 ± 8 | 51 ± 7 | – | – | –
3 | CC(C)Cn1cnc2[nH]c(=O)n(C)c(=O)c21 [1-methyl-7-isobutyl-xanthine] | – | – | 26.1 ± 3.3 | – | 20 | 21 | 31 | 5.0 ± 1.1 | – | 54 ± 5 | 52 ± 3 | 303 | 86 | 0.25 ± 0.08
4 | Cn1c(=O)[nH]c2ncn(CC(C)(C)O)c2c1=O [1-methyl-7-(2-methyl-2-hydroxy-propyl)-xanthine] | – | – | 64.2 ± 12.8 | – | 0 | – | – | – | – | – | – | – | 36 | 1.15 ± 0.15
